Consider three compounds from PMC3808368 (2013).

The test system of test [1] is ATP aptamer (ATP aptamer G-quadruplex) (DNA, aptamer) AACCTGGGGGAGTATTGCGGAGGAAGGT
Kind of test: fluorescence, tracer in G4-FID. The note with it: 100 mM KCl, 50 mM Tris-HCl pH 7.0, 0.25 µM DNA, 0.5 µM thiazole orange.

Test [2] has the same test system. Kind of test: G4-FID, thiazole orange displacement. The note with it: 100 mM KCl; 50 mM Tris-HCl pH 7.0; 0.25 µM DNA; 0.5 µM thiazole orange displaced.
The test system of test [3] is H21 (DNA, G4) GGGTTAGGGTTAGGGTTAGGG
Kind of test: luminescence enhancement of complex 2. The note with it: 50 mM KCl; 20-25 mM Tris-HCl pH 7.0; 1 µM complex, 5 µM DNA; up to 8-fold enhancement.

The test system of test [4] is ATP aptamer duplex (ATP aptamer + complementary strand) (DNA, duplex) AACCTGGGGGAGTATTGCGGAGGAAGGT/ACCTTCCTCCGCAATACTCCCCCAGGTT
Kind of test: luminescence enhancement of complex 2. The note with it: none added; 20 mM Tris-HCl pH 7.3, 25°C; slightly emissive without ATP.

Test [5] concerns ssDNA (DNA, single strand) GAAATTCTTAAGTGCGATCGAG
The test can be described thus: luminescence enhancement of complex 2. The note with it: 50 mM KCl; 20-25 mM Tris-HCl pH 7.0; 1 µM complex, 5 µM DNA; minimal luminescence change.

The subject of test [6] is HTS (DNA, G4) TTAGGGTTAGGGTTAGGGTTAGGG
The test can be described thus: luminescence enhancement of complex 2. The note with it: 50 mM KCl; 20-25 mM Tris-HCl pH 7.0; 1 µM complex, 5 µM DNA; up to 8-fold enhancement.

Molecules are shown by their SMILES.

Turning to `CN1C(=Cc2cc[n+](C)c3ccccc23)Sc2ccccc21`, the binding result in test [1] is given as “yes”.

As to `[Ir+3].[c-]1ccccc1-c1ccccn1.[c-]1ccccc1-c1ccccn1.c1ccc2nc(-c3ccc4ccccc4n3)ccc2c1`, in test [2], the G4DC50 was greater than 6 µM.

As to `[Ir+3].[c-]1ccccc1-c1nccc2ccccc12.[c-]1ccccc1-c1nccc2ccccc12.c1ccc2nc(-c3ccc4ccccc4n3)ccc2c1`, the binding entry in test [3] was “yes”; in test [4], “weak”; in test [5], “no”; in test [6], “yes”. The compound further gave a G4DC50 in test [2] of 5 µM.
